Reference: patent US20190105409A9, “IMAGING AGENTS WITH IMPROVED PHARMACOKINETIC PROFILES” (GE HEALTHCARE AS, priority 2004, published 2019)

Assay: Biodistribution of radiolabelled compounds in a Lewis Lung mouse Carcinoma model
Assay type: in vivo
Details: for % ID/g kidney / % ID/g liver: tail vein injection of radiolabelled compound, excretion profile monitored at 5, 30, 60 and 120 minutes (time point not given)
Protocol: Biodistribution studies were carried out in a Lewis Lung mouse Carcinoma model as described in Bae et al, Drugs Exp Clin Res, 2003; 29 (1): 15-23. Following tail vein injection of the compounds, e the excretion profile was monitored at 5, 30, 60 and 120 minutes.

Row | SMILES | % ID/g kidney [% ID/g] | % ID/g liver [% ID/g] | excretion route / biodistribution in comparison to compounds 2 and 3 (tail vein injection, conclusion from Table 1)
1 | O=C(CCN(C1(C(=O)NO)CCCC1)S(=O)(=O)c1ccc(Oc2ccc(F)cc2)cc1)NCCc1ccc(O)c(I)c1 [Compound 2] | 7 | 71 | –
2 | NC(=O)C(Cc1ccc(O)c(I)c1)NC(=O)OC(=O)NCCOCCOCCOCCNC(=O)CCN(C1(C(=O)NO)CCCC1)S(=O)(=O)c1ccc(Oc2ccc(F)cc2)cc1 (stereo not shown) [Compound 3] | 20 | 61 | –
3 | NC(=O)C(Cc1ccc(O)c(I)c1)NC(=O)CCOCCOCCOCCOCCOCCOCCOCCOCCOCCOCCOCCOCCNC(=O)CCOCCOCCOCCOCCOCCOCCOCCOCCOCCOCCOCCOCCNC(=O)CCN(C1(C(=O)NO)CCCC1)S(=O)(=O)c1ccc(Oc2ccc(F)cc2)cc1 (stereo not shown) [Compound 4] | 70 | 20 | preferably excreted via the renal system
